Key:
[1] = target: T1, dopamine transporter (Rattus norvegicus, UniProt P23977); assay: In vitro inhibition of 3H-dopamine (3H-DA) uptake in striatal synaptosomes; assay type: biochemical
T1 construct: Corpi striati from male Wistar rats (150-200 g) are homogenized; from tissue; host or cells: rat striatal synaptosomes (P2 pellet)
Procedure: Monoamine oxidase activity will be inhibited in the presence of pargyline. The homogenate is centrifuged at 1000×g for 10 min. The resulting supernatant is then centrifuged at 27,000×g for 50 min and the supernatant is discarded.
(§1) After incubation the samples are poured directly onto Whatman GF/C glass fibre filters under suction. The filters are then washed three times with 5 ml of ice-cold 0.9% (w/v) NaCl solution. The amount of radioactivity on the filters is determined by conventional liquid scintillation counting. Specific uptake is calculated as the difference between total uptake and non-specific uptake.

[2] = target: T2, serotonin transporter (Rattus norvegicus, UniProt P31652); assay: In vitro inhibition of 3H-5-hydroxytryptamine (3H-5-HT, serotonin) uptake in cortical synaptosomes; assay type: biochemical
T2 construct: Cerebral cortices from male Wistar rats (150-200 g) are homogenized; from tissue; host or cells: rat cerebral cortex synaptosomes (P2 pellet)
T2 sequence (P31652 whole entry): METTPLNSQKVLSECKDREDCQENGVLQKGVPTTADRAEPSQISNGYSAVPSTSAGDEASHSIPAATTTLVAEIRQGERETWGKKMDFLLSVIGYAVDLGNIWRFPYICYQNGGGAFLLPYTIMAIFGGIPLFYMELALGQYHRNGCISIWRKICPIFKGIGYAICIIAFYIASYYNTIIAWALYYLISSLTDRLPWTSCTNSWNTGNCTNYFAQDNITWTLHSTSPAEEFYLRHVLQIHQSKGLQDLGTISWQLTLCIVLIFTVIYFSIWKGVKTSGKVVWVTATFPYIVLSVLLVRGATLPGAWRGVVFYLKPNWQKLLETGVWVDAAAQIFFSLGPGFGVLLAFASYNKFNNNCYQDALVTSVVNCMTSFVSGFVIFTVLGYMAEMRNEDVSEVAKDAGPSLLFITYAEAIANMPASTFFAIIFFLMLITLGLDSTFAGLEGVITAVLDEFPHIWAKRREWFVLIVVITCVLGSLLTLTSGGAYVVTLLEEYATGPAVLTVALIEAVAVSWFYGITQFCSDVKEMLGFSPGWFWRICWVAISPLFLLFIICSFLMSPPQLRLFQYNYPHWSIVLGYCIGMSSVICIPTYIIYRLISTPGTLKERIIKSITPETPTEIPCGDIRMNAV
Procedure: Tissue preparation: Preparations are performed at 0-4° C. unless otherwise indicated. […] Monoamine oxidase activity will be inhibited in the presence of pargyline. The homogenate is centrifuged at 1000×g for 10 min.
as §1, with “Non-specific uptake is determined using citalopram (1 μM, final concentration). After” for “After”

T1 sequence (P23977 whole entry): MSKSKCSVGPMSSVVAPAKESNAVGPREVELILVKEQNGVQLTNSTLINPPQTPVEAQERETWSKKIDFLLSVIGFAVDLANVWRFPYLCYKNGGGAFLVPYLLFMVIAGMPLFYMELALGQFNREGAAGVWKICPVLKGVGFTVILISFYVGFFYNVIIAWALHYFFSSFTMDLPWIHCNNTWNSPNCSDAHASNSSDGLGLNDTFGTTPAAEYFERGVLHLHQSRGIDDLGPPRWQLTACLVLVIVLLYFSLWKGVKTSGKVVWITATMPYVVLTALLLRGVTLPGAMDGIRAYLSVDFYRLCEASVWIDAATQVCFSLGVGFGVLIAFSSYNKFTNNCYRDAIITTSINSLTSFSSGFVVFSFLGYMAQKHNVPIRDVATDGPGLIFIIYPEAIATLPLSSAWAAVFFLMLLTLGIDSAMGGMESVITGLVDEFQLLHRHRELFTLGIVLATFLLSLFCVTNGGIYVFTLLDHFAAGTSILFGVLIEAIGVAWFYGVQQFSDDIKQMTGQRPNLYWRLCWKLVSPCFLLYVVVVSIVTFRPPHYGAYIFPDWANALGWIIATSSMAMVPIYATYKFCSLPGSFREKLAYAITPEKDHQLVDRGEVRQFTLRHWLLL

## CN1[C@H]2CC[C@@H]1[C@H](CSc1ccccc1)[C@@H](c1ccc(Cl)c(Cl)c1)C2 [(1R,2R,3S)-2-phenylthiomethyl-3-(3,4-dichlorophenyl)-tropane]
[1]
  IC50: 4.3 nM
[2]
  IC50: 9.2 nM

Source: patent US6395748B2, “Tropane-derivatives, their preparation and use” (NeuroSearch A/S, priority 1996, dated 2002)
